Laboratory results from ChEMBL document CHEMBL1201862, “PubChem BioAssay data set” (2004).
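These data come from cells grown in 96-well plates and exposed to compound for 48 hours at five concentrations. GI50: concentration for 50% inhibition of growth.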 Active and inactive are the calls of the source. Rule as the data show it: active = GI50 up to about 1.1 µM and inactive = higher.

Legend:
Experiment in all cases: NCI tumour cell line growth inhibition, 48 h
[1] = system: T47D
[2] = system: HCC 2998
[3] = system: HOP-62
[4] = system: IGROV-1
[5] = system: KM12
[6] = system: M14
[7] = system: 786-0
[8] = system: K562
[9] = system: RPMI-8226
[10] = system: HCT-116
[11] = system: OVCAR-4
[12] = system: SF-268
[13] = system: TK-10
[14] = system: RXF 393
[15] = system: SNB-75
[16] = system: ACHN
[17] = system: NCI-H522
[18] = system: NCI/ADR-RES
[19] = system: CAKI-1

SMILES | GI50 [1] | GI50 [2] | GI50 [3] | GI50 [4] | GI50 [5] | GI50 [6] | GI50 [7] | GI50 [8] | GI50 [9] | GI50 [10] | GI50 [11] | GI50 [12] | GI50 [13] | GI50 [14] | GI50 [15] | GI50 [16] | GI50 [17] | GI50 [18] | GI50 [19]
CN(C)CCCN1c2ccc([N+](=O)[O-])cc2CCc2cccc([N+](=O)[O-])c21 | 17.4 µM (inactive) | 13.5 µM (inactive) | 13.8 µM (inactive) | 14.9 µM (inactive) | 15.6 µM (inactive) | 13.7 µM (inactive) | 13.6 µM (inactive) | 14.8 µM (inactive) | 26.1 µM (inactive) | 14.3 µM (inactive) | 0.57 µM (active) | 15.5 µM (inactive) | 11.1 µM (inactive) | 10.5 µM (inactive) | 13.2 µM (inactive) | 17.6 µM (inactive) | 17.7 µM (inactive) | 13.3 µM (inactive) | –
COCCOC1=CC(=O)c2c(O)ccc(O)c2C1=O | 2.36 µM (inactive) | 2.17 µM (inactive) | 0.724 µM (active) | 1.72 µM (inactive) | 1.93 µM (inactive) | 0.186 µM (active) | 1.64 µM (inactive) | 2.69 µM (inactive) | 4.28 µM (inactive) | 0.285 µM (active) | 1.89 µM (inactive) | 1.89 µM (inactive) | 1.91 µM (inactive) | 2.19 µM (inactive) | 2 µM (inactive) | 1.87 µM (inactive) | 2.29 µM (inactive) | 2.44 µM (inactive) | 2.59 µM (inactive)
CC1=CC(=O)CC(C)(C)C1(O)/C=C/C(C)=C/C(=O)O (stereo unspecified) | > 100 µM (inactive) | > 100 µM (inactive) | > 100 µM (inactive) | > 100 µM (inactive) | > 100 µM (inactive) | > 100 µM (inactive) | > 100 µM (inactive) | > 100 µM (inactive) | > 100 µM (inactive) | > 100 µM (inactive) | > 100 µM (inactive) | > 100 µM (inactive) | > 100 µM (inactive) | > 100 µM (inactive) | > 100 µM (inactive) | > 100 µM (inactive) | > 100 µM (inactive) | > 100 µM (inactive) | > 100 µM (inactive)
CC(C)NC(=O)OCc1c(COC(=O)NC(C)C)c(-c2cc[n+](COC(=O)C(C)C)cc2)n2c1CCC2 | > 94.8 µM (inactive) | > 100 µM (inactive) | > 68.4 µM (inactive) | 30.1 µM (inactive) | > 100 µM (inactive) | 99.5 µM (inactive) | 28 µM (inactive) | > 100 µM (inactive) | > 100 µM (inactive) | > 100 µM (inactive) | > 100 µM (inactive) | > 74.8 µM (inactive) | 41.5 µM (inactive) | 21 µM (inactive) | > 53.5 µM (inactive) | 12.2 µM (inactive) | > 72.1 µM (inactive) | > 100 µM (inactive) | 20 µM (inactive)
Cc1cccc(-c2cc(O)c3c(C)cc(C)nc3n2)c1 | 3.96 µM (inactive) | 4.9 µM (inactive) | 4.52 µM (inactive) | 4.06 µM (inactive) | 0.745 µM (active) | 2.29 µM (inactive) | 4.57 µM (inactive) | 0.585 µM (active) | 4.07 µM (inactive) | 2.04 µM (inactive) | 4.38 µM (inactive) | 6.21 µM (inactive) | 16.1 µM (inactive) | 3.41 µM (inactive) | 1.99 µM (inactive) | 8.3 µM (inactive) | 0.658 µM (active) | 1.65 µM (inactive) | 5.66 µM (inactive)
CCCCCC(O)C(O)CCC[C@H](O)[C@H]1CC[C@H]([C@H]2CC[C@H]([C@H](O)CCCCCCCCCCCCC3=C[C@H](C)OC3=O)O2)O1 (stereo partly specified) | 7.19 µM (inactive) | 11 µM (inactive) | 5.2 µM (inactive) | 3.24 µM (inactive) | 2.21 µM (inactive) | 3.49 µM (inactive) | 3.84 µM (inactive) | 1.38 µM (inactive) | 1.28 µM (inactive) | 1.36 µM (inactive) | 5.11 µM (inactive) | 1.83 µM (inactive) | 2.86 µM (inactive) | 7.33 µM (inactive) | 5.43 µM (inactive) | 1.59 µM (inactive) | 4.88 µM (inactive) | 0.853 µM (active) | 5.07 µM (inactive)
O=C1NN=C(c2ccc(Cl)cc2)CC1C1C(=O)N(c2ccccc2)N=C1c1ccccc1 (stereo unspecified) | 22.1 µM (inactive) | 26.8 µM (inactive) | 32 µM (inactive) | 35.7 µM (inactive) | 29 µM (inactive) | 37.8 µM (inactive) | 24.7 µM (inactive) | 30 µM (inactive) | 37.1 µM (inactive) | 19.6 µM (inactive) | 26.4 µM (inactive) | 48.2 µM (inactive) | 35.6 µM (inactive) | 22.5 µM (inactive) | 23.2 µM (inactive) | 29.2 µM (inactive) | 23.6 µM (inactive) | 40.6 µM (inactive) | –
